± gives the expanded uncertainty stated by the source.
Test: xn = mol fraction of the nth substance listed
Conditions: Constant-volume piezometry

## CCCCC [pentane] + CCCO
493.15 K, 18923 kPa, Fluid (supercritical or subcritical phases), x1 = 0.8
  mass density: 467.52 ± 2.4 kg/m3
493.15 K, 23193 kPa, Fluid (supercritical or subcritical phases), x1 = 0.5
  mass density: 520.3 ± 2.6 kg/m3
493.15 K, 26040 kPa, Liquid, x1 = 0.2
  mass density: 582.45 ± 1.2 kg/m3
493.15 K, 27225 kPa, Fluid (supercritical or subcritical phases), x1 = 0.8
  mass density: 497.01 ± 2.5 kg/m3
493.15 K, 32486 kPa, Fluid (supercritical or subcritical phases), x1 = 0.5
  mass density: 549.21 ± 2.8 kg/m3
493.15 K, 32782 kPa, Liquid, x1 = 0.2
  mass density: 596.07 ± 1.2 kg/m3
493.15 K, 37919 kPa, Fluid (supercritical or subcritical phases), x1 = 0.8
  mass density: 521.58 ± 2.6 kg/m3
493.15 K, 43289 kPa, Liquid, x1 = 0.2
  mass density: 615.49 ± 1.3 kg/m3
493.15 K, Liquid, x1 = 0.5
  mass density: 260.13 ± 1.6 kg/m3
494.15 K, 4206 kPa, Gas, x1 = 0.5
  mass density: 154.71 ± 0.71 kg/m3
494.15 K, 4318 kPa, Gas, x1 = 0.5
  mass density: 183.11 ± 0.78 kg/m3
494.15 K, 4366 kPa, Fluid (supercritical or subcritical phases), x1 = 0.5
  mass density: 251.05 ± 1.3 kg/m3
498.15 K, 4515 kPa, Fluid (supercritical or subcritical phases), x1 = 0.5
  mass density: 183.07 ± 1.1 kg/m3
498.15 K, 4637 kPa, Fluid (supercritical or subcritical phases), x1 = 0.5
  mass density: 251 ± 1.5 kg/m3
498.15 K, 4641 kPa, Fluid (supercritical or subcritical phases), x1 = 0.5
  mass density: 260.06 ± 1.6 kg/m3
502.95 K, Liquid, x1 = 0.2
  mass density: 419.16 ± 2.5 kg/m3
503.15 K, 912 kPa, Gas, x1 = 0.5
  mass density: 15.53 ± 0.05 kg/m3
503.15 K, 1255 kPa, Gas, x1 = 0.8
  mass density: 22.55 ± 0.07 kg/m3
503.15 K, 1464 kPa, Gas, x1 = 0.2
  mass density: 24.95 ± 0.08 kg/m3
503.15 K, 1642 kPa, Gas, x1 = 0.5
  mass density: 30.01 ± 0.09 kg/m3
503.15 K, 1866 kPa, Gas, x1 = 0.8
  mass density: 36.72 ± 0.11 kg/m3
503.15 K, 2163 kPa, Gas, x1 = 0.5
  mass density: 40.52 ± 0.13 kg/m3
503.15 K, 2523 kPa, Gas, x1 = 0.5
  mass density: 51.14 ± 0.16 kg/m3
503.15 K, 2701 kPa, Gas, x1 = 0.8
  mass density: 58.47 ± 0.18 kg/m3
503.15 K, 2838 kPa, Gas, x1 = 0.2
  mass density: 53.06 ± 0.17 kg/m3
503.15 K, 3137 kPa, Gas, x1 = 0.5
  mass density: 67.58 ± 0.21 kg/m3
503.15 K, 3169 kPa, Gas, x1 = 0.8
  mass density: 73.86 ± 0.23 kg/m3
503.15 K, 3305 kPa, Gas, x1 = 0.5
  mass density: 72.67 ± 0.23 kg/m3
503.15 K, 3338 kPa, Gas, x1 = 0.9
  mass density: 83.46 ± 0.26 kg/m3
503.15 K, 3585 kPa, Gas, x1 = 0.2
  mass density: 91.5 ± 0.29 kg/m3
503.15 K, 3654 kPa, Gas, x1 = 0.5
  mass density: 88.99 ± 0.28 kg/m3
503.15 K, 3800 kPa, Gas, x1 = 0.5
  mass density: 95.94 ± 0.31 kg/m3
503.15 K, 3948 kPa, Fluid (supercritical or subcritical phases), x1 = 0.8
  mass density: 106.5 ± 0.54 kg/m3
503.15 K, 4106 kPa, Fluid (supercritical or subcritical phases), x1 = 0.9
  mass density: 123.46 ± 0.63 kg/m3
503.15 K, 4150 kPa, Liquid, x1 = 0.2
  mass density: 419.16 ± 0.86 kg/m3
503.15 K, 4247 kPa, Fluid (supercritical or subcritical phases), x1 = 0.5
  mass density: 122.01 ± 0.68 kg/m3
503.15 K, 4264 kPa, Fluid (supercritical or subcritical phases), x1 = 0.9
  mass density: 134.25 ± 0.69 kg/m3
503.15 K, 4466 kPa, Fluid (supercritical or subcritical phases), x1 = 0.5
  mass density: 144.25 ± 0.77 kg/m3
503.15 K, 4546 kPa, Fluid (supercritical or subcritical phases), x1 = 0.8
  mass density: 140.44 ± 0.76 kg/m3
503.15 K, 4573 kPa, Fluid (supercritical or subcritical phases), x1 = 0.5
  mass density: 154.64 ± 0.82 kg/m3
503.15 K, 4621 kPa, Fluid (supercritical or subcritical phases), x1 = 0.9
  mass density: 164.11 ± 0.85 kg/m3
503.15 K, 4653 kPa, Fluid (supercritical or subcritical phases), x1 = 0.5
  mass density: 165.3 ± 0.89 kg/m3
503.15 K, 4689 kPa, Fluid (supercritical or subcritical phases), x1 = 0.8
  mass density: 156.19 ± 0.83 kg/m3
503.15 K, 4764 kPa, Fluid (supercritical or subcritical phases), x1 = 0.5
  mass density: 183.03 ± 0.99 kg/m3
503.15 K, 4818 kPa, Fluid (supercritical or subcritical phases), x1 = 0.8
  mass density: 169.95 ± 0.91 kg/m3
503.15 K, 4821 kPa, Fluid (supercritical or subcritical phases), x1 = 0.5
  mass density: 200.59 ± 1.1 kg/m3
503.15 K, 4859 kPa, Fluid (supercritical or subcritical phases), x1 = 0.9
  mass density: 189.64 ± 0.99 kg/m3
503.15 K, 4864 kPa, Fluid (supercritical or subcritical phases), x1 = 0.5
  mass density: 210.43 ± 1.1 kg/m3
503.15 K, 4865 kPa, Fluid (supercritical or subcritical phases), x1 = 0.8
  mass density: 176.2 ± 0.93 kg/m3
503.15 K, 4895 kPa, Fluid (supercritical or subcritical phases), x1 = 0.5
  mass density: 224.27 ± 1.2 kg/m3
503.15 K, 4924 kPa, Fluid (supercritical or subcritical phases), x1 = 0.8
  mass density: 181 ± 0.96 kg/m3
503.15 K, 4956 kPa, Fluid (supercritical or subcritical phases), x1 = 0.5
  mass density: 241.74 ± 1.3 kg/m3
503.15 K, 4976 kPa, Fluid (supercritical or subcritical phases), x1 = 0.5
  mass density: 250.94 ± 1.3 kg/m3
503.15 K, 4988 kPa, Fluid (supercritical or subcritical phases), x1 = 0.9
  mass density: 202.57 ± 1.1 kg/m3
503.15 K, 4993 kPa, Fluid (supercritical or subcritical phases), x1 = 0.5
  mass density: 260 ± 1.4 kg/m3
503.15 K, 5013 kPa, Fluid (supercritical or subcritical phases), x1 = 0.8
  mass density: 193.35 ± 1 kg/m3
503.15 K, 5023 kPa, Fluid (supercritical or subcritical phases), x1 = 0.5
  mass density: 270.83 ± 1.4 kg/m3
503.15 K, 5099 kPa, Fluid (supercritical or subcritical phases), x1 = 0.5
  mass density: 282.66 ± 1.5 kg/m3
503.15 K, 5158 kPa, Fluid (supercritical or subcritical phases), x1 = 0.9
  mass density: 220.9 ± 1.2 kg/m3
503.15 K, 5187 kPa, Fluid (supercritical or subcritical phases), x1 = 0.8
  mass density: 214.06 ± 1.1 kg/m3
503.15 K, 5234 kPa, Fluid (supercritical or subcritical phases), x1 = 0.8
  mass density: 219.83 ± 1.2 kg/m3
503.15 K, 5246 kPa, Fluid (supercritical or subcritical phases), x1 = 0.5
  mass density: 298.97 ± 1.6 kg/m3
503.15 K, 5287 kPa, Fluid (supercritical or subcritical phases), x1 = 0.9
  mass density: 233.29 ± 1.2 kg/m3
503.15 K, 5320 kPa, Fluid (supercritical or subcritical phases), x1 = 0.9
  mass density: 236.76 ± 1.2 kg/m3
503.15 K, 5356 kPa, Fluid (supercritical or subcritical phases), x1 = 0.9
  mass density: 241.17 ± 1.2 kg/m3
503.15 K, 5385 kPa, Fluid (supercritical or subcritical phases), x1 = 0.9
  mass density: 244.48 ± 1.3 kg/m3
503.15 K, 5390 kPa, Fluid (supercritical or subcritical phases), x1 = 0.8
  mass density: 234.94 ± 1.2 kg/m3
503.15 K, 5482 kPa, Fluid (supercritical or subcritical phases), x1 = 0.8
  mass density: 245.58 ± 1.2 kg/m3
503.15 K, 5510 kPa, Fluid (supercritical or subcritical phases), x1 = 0.5
  mass density: 320.32 ± 1.6 kg/m3
503.15 K, 5579 kPa, Fluid (supercritical or subcritical phases), x1 = 0.5
  mass density: 325.6 ± 1.7 kg/m3
503.15 K, 5611 kPa, Fluid (supercritical or subcritical phases), x1 = 0.8
  mass density: 258.82 ± 1.4 kg/m3
503.15 K, 5786 kPa, Fluid (supercritical or subcritical phases), x1 = 0.9
  mass density: 282.29 ± 1.4 kg/m3
503.15 K, 5797 kPa, Fluid (supercritical or subcritical phases), x1 = 0.8
  mass density: 272.8 ± 1.4 kg/m3
503.15 K, 5864 kPa, Fluid (supercritical or subcritical phases), x1 = 0.5
  mass density: 344.91 ± 1.7 kg/m3

From the NIST ThermoML archive (doi:10.1016/j.jct.2016.10.023)
